Measured values as given in patent US20090062355A1, “Pharmaceutical Product” (Takeda Pharmaceutical Company Limited, priority 2006, published 2009).
Where two headings read alike, the source gives them in different places.

Test system: Human Peripheral Blood Mononuclear Cell
Experiment: Suppressive action on production of mediator from human peripheral blood mononuclear cell
Type: cell-based
Conditions: LPS 10 ng/mL and INFα 1 U/mL, overnight, ELISA
Procedure: Peripheral blood mononuclear cells were separated from three healthy subjects by a conventional method, suspended in RPMI1640 medium supplemented with 10% inactivated fetal bovine serum, and plated on a 96 well microplate at 8×10^4 cells/well. Test compound 2 (compound 8′ of Reference Example D7), LPS (final concentration 10 ng/mL) and INFα (final concentration 1 U/mL) were added, cultured overnight, and TNF-α, IL-6 and IL-8 in the culture supernatant was quantified using a commercially available ELISA kit. Test substance was dissolved in N,N-dimethylformamide to 10 mM, diluted with the medium to 10-fold concentration of the final concentration and 1/10 thereof was added. Test compound 2 suppressed production of TNFα, IL-6 and IL-8 at an equivalent IC50. In addition, no difference in the suppressive activity was found in the peripheral blood mononuclear cells of the three subjects.

IC50 (subject A, read-out: IC50, IL-6 production): 36 nM | IC50 (subject A, read-out: IC50, IL-8 production): 83 nM | IC50 (subject A, read-out: IC50, TNF-α production): 43 nM | IC50 (subject B, read-out: IC50, IL-6 production): 51 nM | IC50 (subject B, read-out: IC50, IL-8 production): 130 nM | IC50 (subject B, read-out: IC50, TNF-α production): 39 nM | IC50 (subject C, read-out: IC50, IL-6 production): 35 nM | IC50 (subject C, read-out: IC50, IL-8 production): 81 nM | IC50 (subject C, read-out: IC50, TNF-α production): 32 nM
Compound: CCOC(=O)C1=CCOCC1S(=O)(=O)Nc1ccc(F)cc1Cl (stereo not drawn) [test compound 2, ethyl 3-[(2-chloro-4-fluorophenyl)sulfamoyl]-3,6-dihydro-2H-pyran-4-carboxylate]
